According to ChEMBL document CHEMBL4765364, “Synthesis, antibacterial and antifungal activity of new 3-biphenyl-3H-Imidazo[1,2-a]azepin-1-ium bromides” (Eur J Med Chem, 2020):
In brackets after ≈: the same amount, converted by molar mass. Activity calls are given as the source filed them. No cut-off for these calls is given here.

Key:
Pseudomonas aeruginosa [1] = experiment: Antibacterial activity against Pseudomonas aeruginosa ATCC 27853 measured after 18 hrs; type: functional
Klebsiella pneumoniae [2] = experiment: Antibacterial activity against Klebsiella pneumoniae ATCC 700603 at 32 ug/ml measured after 18 hrs; type: functional
Staphylococcus aureus [3] = experiment: Antibacterial activity against methicillin resistant Staphylococcus aureus ATCC 43300 at 32 ug/ml measured after 18 hrs; type: functional
[4] = Cytotoxicity against HEK293 cells measured after 20 hrs by resazurin dye based fluorescence assay; type: cell-based; conditions: human
Cryptococcus neoformans [5] = experiment: Antifungal activity against Cryptococcus neoformans ATCC 208821 measured after 24 hrs by resazurin dye based assay; type: functional
Escherichia coli [6] = experiment: Antibacterial activity against Escherichia coli ATCC 25922 at 32 ug/ml measured after 18 hrs; type: functional
Staphylococcus aureus [7] = experiment: Antibacterial activity against methicillin resistant Staphylococcus aureus ATCC 43300 measured after 18 hrs; type: functional
Candida albicans [8] = experiment: Antifungal activity against Candida albicans ATCC 90028 at 32 ug/ml measured after 24 hrs by resazurin dye based assay; type: functional
Cryptococcus neoformans [9] = experiment: Antifungal activity against Cryptococcus neoformans ATCC 208821 at 32 ug/ml measured after 24 hrs by resazurin dye based assay; type: functional
Acinetobacter baumannii [10] = experiment: Antibacterial activity against Acinetobacter baumannii ATCC 19606 measured after 18 hrs; type: functional; conditions: ATCC 19606 = CIP 70.34 = JCM 6841
Klebsiella pneumoniae [11] = experiment: Antibacterial activity against Klebsiella pneumoniae ATCC 700603 measured after 18 hrs; type: functional
Pseudomonas aeruginosa [12] = experiment: Antibacterial activity against Pseudomonas aeruginosa ATCC 27853 at 32 ug/ml measured after 18 hrs; type: functional
Acinetobacter baumannii [13] = experiment: Antibacterial activity against Acinetobacter baumannii ATCC 19606 at 32 ug/ml measured after 18 hrs; type: functional, ATCC 19606 = CIP 70.34 = JCM 6841
Escherichia coli [14] = experiment: Antibacterial activity against Escherichia coli ATCC 25922 measured after 18 hrs; type: functional
Candida albicans [15] = experiment: Antifungal activity against Candida albicans ATCC 90028 measured after 24 hrs by resazurin dye based assay; type: functional
[16] = ATCC 19606 = CIP 70.34 = JCM 6841, dose 32.0 µg/ml

Row | Molecule | MIC (Pseudomonas aeruginosa [1]) | Activity (Klebsiella pneumoniae [2]; dose 32 µg/ml) | Activity (Staphylococcus aureus [3]; dose 32 µg/ml) | CC50 at 20 h [4] | MIC (Cryptococcus neoformans [5]) | Activity (Escherichia coli [6]; dose 32 µg/ml) | MIC (Staphylococcus aureus [7]) | Activity (Candida albicans [8]; dose 32 µg/ml) | Activity (Cryptococcus neoformans [9]; dose 32 µg/ml) | MIC (Acinetobacter baumannii [10]) | MIC (Klebsiella pneumoniae [11]) | Activity (Pseudomonas aeruginosa [12]; dose 32 µg/ml) | Activity (Acinetobacter baumannii [13]; dose 32 µg/ml) | MIC (Escherichia coli [14]) | MIC (Candida albicans [15]) | also measured
1 | OC1(c2ccc(-c3ccccc3)cc2)C[N+](c2ccccc2)=C2CCCCCN21.[Br-] (stereo unspecified) | > 32 µg/mL | >80% | >80% | 2.3 µg/mL | > 32 µg/mL | >80% | 32 µg/mL | >80% | >80% | > 32 µg/mL | > 32 µg/mL | >80% | >80% | > 32 µg/mL | > 32 µg/mL | 
2 | OC1(c2ccc(-c3ccccc3)cc2)C[N+](c2ccc(OC(F)F)cc2)=C2CCCCCN21.[Br-] (stereo unspecified) | > 32 µg/mL | >80% | >80% | 5.8 µg/mL | > 32 µg/mL | >80% | 16 µg/mL | >80% | >80% | > 32 µg/mL | > 32 µg/mL | >80% | >80% | > 32 µg/mL | > 32 µg/mL | 
3 | CCc1ccc(-[n+]2cc(-c3ccc(-c4ccccc4)cc3)n3c2CCCCC3)cc1.[Br-] | 32 µg/mL | >80% | >80% | 1.4 µg/mL | 8 µg/mL | >80% | 4 µg/mL | >80% | >80% | > 32 µg/mL | > 32 µg/mL | >80% | >80% | > 32 µg/mL | 4 µg/mL | 
4 | COc1ccc([N+]2=C3CCCCCN3C(O)(c3ccc(-c4ccccc4)cc3)C2)c(OC)c1.[Br-] (stereo unspecified) | 32 µg/mL | >80% | >80% | 2.4 µg/mL | 32 µg/mL | >80% | 8 µg/mL | >80% | >80% | > 32 µg/mL | > 32 µg/mL | >80% | >80% | > 32 µg/mL | > 32 µg/mL | 
5 | CCc1ccc([N+]2=C3CCCCCN3C(O)(c3ccc(-c4ccccc4)cc3)C2)cc1.[Br-] (stereo unspecified) | 32 µg/mL | >80% | >80% | 2.2 µg/mL | 32 µg/mL | >80% | 8 µg/mL | >80% | >80% | > 32 µg/mL | > 32 µg/mL | >80% | >80% | > 32 µg/mL | > 32 µg/mL | 
6 | OC1(c2ccc(-c3ccccc3)cc2)C[N+](c2ccc(Br)cc2)=C2CCCCCN21.[Br-] (stereo unspecified) | > 32 µg/mL | >80% | >80% | 6.1 µg/mL | > 32 µg/mL | >80% | > 32 µg/mL | >80% | >80% | > 32 µg/mL | > 32 µg/mL | >80% | >80% | > 32 µg/mL | > 32 µg/mL | 
7 | COc1ccc([N+]2=C3COCCN3C(O)(c3ccc(-c4ccccc4)cc3)C2)cc1 (stereo unspecified) |  |  |  |  |  |  |  |  |  |  |  |  |  |  |  | Activity (Klebsiella pneumoniae [2]; dose 32.0 µg/ml): inactive; Activity (Staphylococcus aureus [3]; dose 32.0 µg/ml): inactive; Activity (Escherichia coli [6]; dose 32.0 µg/ml): inactive; Activity (Candida albicans [8]; dose 32.0 µg/ml): inactive; Activity (Cryptococcus neoformans [9]; dose 32.0 µg/ml): inactive; Activity (Pseudomonas aeruginosa [12]; dose 32.0 µg/ml): inactive; Activity (Acinetobacter baumannii [13]; [16]): inactive
8 | Cc1ccc(-[n+]2cc(-c3ccc(-c4ccccc4)cc3)n3c2CCCCC3)cc1.[Br-] | > 32 µg/mL | >80% | >80% | 2.1 µg/mL | 16 µg/mL | >80% | 8 µg/mL | >80% | >80% | > 32 µg/mL | > 32 µg/mL | >80% | >80% | > 32 µg/mL | 8 µg/mL | 
9 | OC(Cn1cncn1)(Cn1cncn1)c1ccc(F)cc1F [FLUCONAZOLE] |  |  |  |  | 8 µg/mL (≈ 26.1 µM) |  |  |  |  |  |  |  |  |  | 0.125 µg/mL (≈ 0.408 µM) | 
10 | COc1ccccc1[N+]1=C2CCCCCN2C(O)(c2ccc(-c3ccccc3)cc2)C1.[Br-] (stereo unspecified) | > 32 µg/mL | >80% | >80% | 2.2 µg/mL | 8 µg/mL | >80% | 16 µg/mL | >80% | >80% | > 32 µg/mL | > 32 µg/mL | >80% | >80% | > 32 µg/mL | 32 µg/mL | 
11 | COc1ccc([N+]2=C3CCCCCN3C(O)(c3ccc(-c4ccccc4)cc3)C2)cc1.[Br-] (stereo unspecified) | > 32 µg/mL | >80% | >80% | 2.6 µg/mL | 32 µg/mL | >80% | 16 µg/mL | >80% | >80% | > 32 µg/mL | > 32 µg/mL | >80% | >80% | > 32 µg/mL | > 32 µg/mL | 
12 | OC1(c2ccc(-c3ccccc3)cc2)C[N+](c2ccc3c(c2)OCO3)=C2CCCCCN21.[Br-] (stereo unspecified) | > 32 µg/mL | >80% | >80% | 4.5 µg/mL | > 32 µg/mL | >80% | 32 µg/mL | >80% | >80% | > 32 µg/mL | > 32 µg/mL | >80% | >80% | > 32 µg/mL | > 32 µg/mL | 
13 | CCOc1ccc(-[n+]2cc(-c3ccc(-c4ccccc4)cc3)n3c2CCCCC3)cc1.[Br-] | 32 µg/mL | >80% | >80% | 1.7 µg/mL | 16 µg/mL | >80% | 4 µg/mL | >80% | >80% | > 32 µg/mL | > 32 µg/mL | >80% | >80% | > 32 µg/mL | 8 µg/mL | 
14 | CC/C(=C(\c1ccccc1)c1ccc(OCCN(C)C)cc1)c1ccccc1 [TAMOXIFEN] |  |  |  | 9 µg/mL (≈ 24.2 µM) |  |  |  |  |  |  |  |  |  |  |  | 
15 | COc1ccc([N+]2=C3CCCCN3C(O)(c3ccc(-c4ccccc4)cc3)C2)cc1 (stereo unspecified) |  |  |  |  |  |  |  |  |  |  |  |  |  |  |  | Activity (Klebsiella pneumoniae [2]; dose 32.0 µg/ml): inactive; Activity (Staphylococcus aureus [3]; dose 32.0 µg/ml): inactive; Activity (Escherichia coli [6]; dose 32.0 µg/ml): inactive; Activity (Candida albicans [8]; dose 32.0 µg/ml): inactive; Activity (Cryptococcus neoformans [9]; dose 32.0 µg/ml): inactive; Activity (Pseudomonas aeruginosa [12]; dose 32.0 µg/ml): inactive; Activity (Acinetobacter baumannii [13]; [16]): inactive
16 | COLISTIN | 0.25 µg/mL |  |  |  |  |  |  |  |  | 0.25 µg/mL | 0.25 µg/mL |  |  | 0.125 µg/mL |  | 
